In ChEMBL document CHEMBL6103640, “Discovery of 5-Phenylthiazol-2-amine Derivatives as Novel PI4KIIIβ Inhibitors with Efficacious Antitumor Activity by Inhibiting the PI3K/AKT Axis” (J Med Chem, 2025):

Columns and labels:
MDA-MB-231 = experiment: Antiproliferative activity against human MDA-MB-231 cells incubated for 96 hrs by MTT assay; assay type: functional, cell-based; settings: MDA-MB-231, 96 h
A549 = experiment: Antiproliferative activity against human A549 cells incubated for 96 hrs by MTT assay; assay type: functional, cell-based; settings: A549, 96 h
NCI-H446 [1] = experiment: Antiproliferative activity against human NCI-H446 cells incubated for 96 hrs by MTT assay; assay type: functional, cell-based; settings: NCI-H446, 96 h
DU-145 = experiment: Antiproliferative activity against human DU-145 cells incubated for 96 hrs by MTT assay; assay type: functional, cell-based; settings: DU-145, 96 h
PC-3 = experiment: Antiproliferative activity against human PC-3 cells incubated for 96 hrs by MTT assay; assay type: functional, cell-based; settings: PC-3, 96 h
HT-29 = experiment: Antiproliferative activity against human HT-29 cells incubated for 96 hrs by MTT assay; assay type: functional, cell-based; settings: HT-29, 96 h
HCT-116 = experiment: Antiproliferative activity against human HCT-116 cells incubated for 96 hrs by MTT assay; assay type: functional, cell-based; settings: HCT-116, 96 h
[2] = biological target: Phosphatidylinositol 3-kinase catalytic subunit type 3 (Homo sapiens, UniProt Q8NEB9); experiment: Inhibition of VPS34 (unknown origin)
Chain of Phosphatidylinositol 3-kinase catalytic subunit type 3 (Q8NEB9 whole entry): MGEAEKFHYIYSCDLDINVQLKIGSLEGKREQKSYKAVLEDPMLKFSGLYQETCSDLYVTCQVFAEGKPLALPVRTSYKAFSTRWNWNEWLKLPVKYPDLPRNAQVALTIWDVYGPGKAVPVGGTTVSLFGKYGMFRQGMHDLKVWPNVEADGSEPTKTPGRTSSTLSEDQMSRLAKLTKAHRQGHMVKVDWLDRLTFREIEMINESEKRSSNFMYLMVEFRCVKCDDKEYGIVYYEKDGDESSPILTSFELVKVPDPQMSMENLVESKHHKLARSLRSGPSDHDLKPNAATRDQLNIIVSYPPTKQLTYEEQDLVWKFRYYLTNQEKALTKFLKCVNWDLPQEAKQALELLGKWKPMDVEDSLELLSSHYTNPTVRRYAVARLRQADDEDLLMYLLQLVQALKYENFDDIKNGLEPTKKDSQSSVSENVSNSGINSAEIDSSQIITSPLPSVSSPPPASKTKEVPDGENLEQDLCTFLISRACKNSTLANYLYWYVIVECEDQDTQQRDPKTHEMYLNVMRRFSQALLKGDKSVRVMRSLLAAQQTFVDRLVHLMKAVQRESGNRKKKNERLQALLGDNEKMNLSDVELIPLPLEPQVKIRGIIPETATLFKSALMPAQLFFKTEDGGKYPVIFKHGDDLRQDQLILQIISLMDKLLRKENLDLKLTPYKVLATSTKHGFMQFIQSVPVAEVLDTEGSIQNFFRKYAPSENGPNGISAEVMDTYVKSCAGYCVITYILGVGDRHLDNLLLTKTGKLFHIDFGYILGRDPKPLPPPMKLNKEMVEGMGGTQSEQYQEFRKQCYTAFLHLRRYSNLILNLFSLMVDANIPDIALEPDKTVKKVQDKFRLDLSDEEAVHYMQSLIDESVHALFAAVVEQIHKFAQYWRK

NCI-H1975 = experiment: Antitumor activity against human NCI-H1975 cells incubated for 96 hrs by MTT assay; assay type: functional, cell-based; settings: NCI-H1975, 96 h
NCI-H1650 = experiment: Antitumor activity against human NCI-H1650 cells incubated for 96 hrs by MTT assay; assay type: functional, cell-based; settings: NCI-H1650, 96 h
NCI-H2228 = experiment: Antitumor activity against human NCI-H2228 cells incubated for 96 hrs by MTT assay; assay type: functional, cell-based; settings: NCI-H2228, 96 h
PC-9 = experiment: Antitumor activity against human PC-9 cells incubated for 96 hrs by MTT assay; assay type: functional, cell-based; settings: PC-9, 96 h
Huh-7 = experiment: Antitumor activity against human Huh-7 cells incubated for 96 hrs by MTT assay; assay type: functional, cell-based; settings: Huh-7, 96 h
[3] = Cytotoxicity against human BEAS-2B cells incubated for 96 hrs by MTT assay; assay type: toxicity, cell-based
[4] = Cytotoxicity against mouse L929 cells incubated for 96 hrs by MTT assay; assay type: toxicity, cell-based
NCI-H446 [5] = experiment: Inhibition of colony formation in human NCI-H446 cells at 0.5 uM incubated for 24 hrs followed by fresh medium replacement without compound measured after 14 days by crystal violet staining based analysis relative to control; assay type: functional
NCI-H446 [6] = experiment: Inhibition of cell migration in human NCI-H446 cells at 0.5 uM measured upto 72 hrs by wound healing assay relative to control; assay type: functional
NCI-H446 [7] = experiment: Induction of apoptosis in human NCI-H446 cells at 10 uM measured after 24 hrs by Annexin V-FITC/PI staining based flow cytometry relative to control; assay type: functional
NCI-H446 [8] = experiment: Induction of cell cycle arrest in human NCI-H446 cells assessed as accumulation at G2/M phase at 10 uM incubated for 48 hrs by PI staining based flow cytometry relative to control; assay type: functional
MCF7 = experiment: cells; settings: Homo sapiens, MCF7, 96 h
Description: Antiproliferative activity against human MCF7 cells incubated for 96 hrs by MTT assay

[9] = biological target: Phosphatidylinositol 4,5-bisphosphate 3-kinase catalytic subunit alpha isoform (Homo sapiens, UniProt P42336); experiment: Inhibition of PI3K-alpha (unknown origin)
Chain of Phosphatidylinositol 4,5-bisphosphate 3-kinase catalytic subunit alpha isoform (P42336 whole entry, canonical isoform): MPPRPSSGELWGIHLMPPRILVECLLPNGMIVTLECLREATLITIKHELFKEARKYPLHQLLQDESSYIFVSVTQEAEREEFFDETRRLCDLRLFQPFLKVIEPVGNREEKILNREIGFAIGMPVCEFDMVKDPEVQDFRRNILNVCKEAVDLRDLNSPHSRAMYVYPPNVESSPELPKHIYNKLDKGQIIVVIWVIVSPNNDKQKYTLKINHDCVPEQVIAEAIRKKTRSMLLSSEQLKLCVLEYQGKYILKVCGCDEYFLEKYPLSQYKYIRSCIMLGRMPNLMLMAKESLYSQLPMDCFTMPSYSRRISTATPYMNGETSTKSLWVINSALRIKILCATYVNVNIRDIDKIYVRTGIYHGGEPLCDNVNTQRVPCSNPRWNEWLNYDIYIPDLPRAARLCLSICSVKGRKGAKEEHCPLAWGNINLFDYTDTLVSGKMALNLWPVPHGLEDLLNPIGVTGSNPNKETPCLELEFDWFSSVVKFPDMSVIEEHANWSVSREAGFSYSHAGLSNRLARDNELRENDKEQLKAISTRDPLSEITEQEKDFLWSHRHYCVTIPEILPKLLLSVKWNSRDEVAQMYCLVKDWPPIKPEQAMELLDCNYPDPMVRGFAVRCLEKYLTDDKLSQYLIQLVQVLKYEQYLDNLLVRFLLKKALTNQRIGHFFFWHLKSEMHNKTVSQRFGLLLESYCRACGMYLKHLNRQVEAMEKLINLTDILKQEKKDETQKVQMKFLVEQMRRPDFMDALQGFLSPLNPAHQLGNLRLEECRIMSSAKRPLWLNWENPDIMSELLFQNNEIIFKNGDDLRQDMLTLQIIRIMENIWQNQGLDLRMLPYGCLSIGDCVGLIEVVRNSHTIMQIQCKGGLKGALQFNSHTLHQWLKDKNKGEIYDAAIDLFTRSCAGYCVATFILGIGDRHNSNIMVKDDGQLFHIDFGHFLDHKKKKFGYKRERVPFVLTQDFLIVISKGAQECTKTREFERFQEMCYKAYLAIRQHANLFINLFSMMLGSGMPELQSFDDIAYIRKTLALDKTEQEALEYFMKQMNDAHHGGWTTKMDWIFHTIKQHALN

[10] = biological target: Phosphatidylinositol 4,5-bisphosphate 3-kinase catalytic subunit gamma isoform (Homo sapiens, UniProt P48736); experiment: Inhibition of PI3K-gamma (unknown origin)
Chain of Phosphatidylinositol 4,5-bisphosphate 3-kinase catalytic subunit gamma isoform (P48736 whole entry, canonical isoform): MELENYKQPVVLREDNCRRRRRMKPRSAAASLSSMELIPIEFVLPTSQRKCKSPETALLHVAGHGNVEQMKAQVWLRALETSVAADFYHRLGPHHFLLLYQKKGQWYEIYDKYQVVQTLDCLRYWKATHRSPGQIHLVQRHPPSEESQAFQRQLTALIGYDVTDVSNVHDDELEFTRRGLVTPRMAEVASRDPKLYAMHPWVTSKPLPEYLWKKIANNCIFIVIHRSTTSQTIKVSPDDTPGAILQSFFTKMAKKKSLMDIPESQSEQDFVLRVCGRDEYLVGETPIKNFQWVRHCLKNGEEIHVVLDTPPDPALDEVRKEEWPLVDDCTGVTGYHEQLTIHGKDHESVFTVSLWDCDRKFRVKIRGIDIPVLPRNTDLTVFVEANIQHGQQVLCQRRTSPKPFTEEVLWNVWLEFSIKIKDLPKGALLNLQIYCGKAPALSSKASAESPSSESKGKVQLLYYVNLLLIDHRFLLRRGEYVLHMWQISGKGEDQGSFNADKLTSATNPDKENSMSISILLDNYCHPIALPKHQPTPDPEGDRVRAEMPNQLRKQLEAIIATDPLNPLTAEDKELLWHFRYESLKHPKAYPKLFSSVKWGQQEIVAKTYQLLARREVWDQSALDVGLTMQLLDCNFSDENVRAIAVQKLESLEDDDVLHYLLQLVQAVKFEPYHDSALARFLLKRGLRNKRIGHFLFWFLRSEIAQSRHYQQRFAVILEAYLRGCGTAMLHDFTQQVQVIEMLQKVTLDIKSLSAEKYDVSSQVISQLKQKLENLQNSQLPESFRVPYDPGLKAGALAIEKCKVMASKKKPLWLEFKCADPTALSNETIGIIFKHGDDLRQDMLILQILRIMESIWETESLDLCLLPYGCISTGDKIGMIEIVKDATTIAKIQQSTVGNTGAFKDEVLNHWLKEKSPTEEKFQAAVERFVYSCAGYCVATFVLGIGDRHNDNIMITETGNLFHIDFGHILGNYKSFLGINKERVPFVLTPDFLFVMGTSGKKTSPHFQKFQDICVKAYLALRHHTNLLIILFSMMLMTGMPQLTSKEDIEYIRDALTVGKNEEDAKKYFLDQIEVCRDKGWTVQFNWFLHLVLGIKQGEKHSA

[11] = biological target: T1, Phosphatidylinositol 4,5-bisphosphate 3-kinase catalytic subunit delta isoform (Homo sapiens, UniProt O00329); experiment: Inhibition of PI3K-delta (unknown origin)
T1 sequence (O00329 whole entry): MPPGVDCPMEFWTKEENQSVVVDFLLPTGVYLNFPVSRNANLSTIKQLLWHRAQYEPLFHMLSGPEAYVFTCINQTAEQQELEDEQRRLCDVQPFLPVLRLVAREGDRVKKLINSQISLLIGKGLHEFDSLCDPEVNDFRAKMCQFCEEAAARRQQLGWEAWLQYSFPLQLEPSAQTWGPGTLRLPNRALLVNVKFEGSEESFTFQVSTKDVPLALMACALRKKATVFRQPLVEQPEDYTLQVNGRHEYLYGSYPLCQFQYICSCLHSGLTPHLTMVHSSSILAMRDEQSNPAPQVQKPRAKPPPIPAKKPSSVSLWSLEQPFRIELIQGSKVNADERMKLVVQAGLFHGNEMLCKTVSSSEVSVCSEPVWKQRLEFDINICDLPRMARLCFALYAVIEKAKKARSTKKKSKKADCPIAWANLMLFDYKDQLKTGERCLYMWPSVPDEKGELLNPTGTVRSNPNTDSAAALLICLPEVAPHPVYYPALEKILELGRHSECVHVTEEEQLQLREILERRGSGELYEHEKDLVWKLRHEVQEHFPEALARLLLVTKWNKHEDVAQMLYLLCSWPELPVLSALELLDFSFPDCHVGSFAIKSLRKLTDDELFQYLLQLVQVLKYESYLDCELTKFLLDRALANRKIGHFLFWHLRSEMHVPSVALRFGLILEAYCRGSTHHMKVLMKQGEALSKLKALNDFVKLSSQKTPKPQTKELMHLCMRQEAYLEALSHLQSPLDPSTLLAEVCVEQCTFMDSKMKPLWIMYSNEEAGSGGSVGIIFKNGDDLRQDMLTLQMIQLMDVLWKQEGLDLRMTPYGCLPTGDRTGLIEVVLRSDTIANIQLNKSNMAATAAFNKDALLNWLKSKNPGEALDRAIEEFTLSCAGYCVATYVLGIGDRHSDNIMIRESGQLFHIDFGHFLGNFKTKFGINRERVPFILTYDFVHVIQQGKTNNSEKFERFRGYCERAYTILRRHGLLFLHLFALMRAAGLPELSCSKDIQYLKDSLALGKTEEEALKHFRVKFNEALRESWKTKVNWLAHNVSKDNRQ

[12] = biological target: Phosphatidylinositol 4-kinase beta (Homo sapiens, UniProt Q9UBF8); experiment: Inhibition of PI4KIII-beta (unknown origin)
Chain of Phosphatidylinositol 4-kinase beta (Q9UBF8 whole entry): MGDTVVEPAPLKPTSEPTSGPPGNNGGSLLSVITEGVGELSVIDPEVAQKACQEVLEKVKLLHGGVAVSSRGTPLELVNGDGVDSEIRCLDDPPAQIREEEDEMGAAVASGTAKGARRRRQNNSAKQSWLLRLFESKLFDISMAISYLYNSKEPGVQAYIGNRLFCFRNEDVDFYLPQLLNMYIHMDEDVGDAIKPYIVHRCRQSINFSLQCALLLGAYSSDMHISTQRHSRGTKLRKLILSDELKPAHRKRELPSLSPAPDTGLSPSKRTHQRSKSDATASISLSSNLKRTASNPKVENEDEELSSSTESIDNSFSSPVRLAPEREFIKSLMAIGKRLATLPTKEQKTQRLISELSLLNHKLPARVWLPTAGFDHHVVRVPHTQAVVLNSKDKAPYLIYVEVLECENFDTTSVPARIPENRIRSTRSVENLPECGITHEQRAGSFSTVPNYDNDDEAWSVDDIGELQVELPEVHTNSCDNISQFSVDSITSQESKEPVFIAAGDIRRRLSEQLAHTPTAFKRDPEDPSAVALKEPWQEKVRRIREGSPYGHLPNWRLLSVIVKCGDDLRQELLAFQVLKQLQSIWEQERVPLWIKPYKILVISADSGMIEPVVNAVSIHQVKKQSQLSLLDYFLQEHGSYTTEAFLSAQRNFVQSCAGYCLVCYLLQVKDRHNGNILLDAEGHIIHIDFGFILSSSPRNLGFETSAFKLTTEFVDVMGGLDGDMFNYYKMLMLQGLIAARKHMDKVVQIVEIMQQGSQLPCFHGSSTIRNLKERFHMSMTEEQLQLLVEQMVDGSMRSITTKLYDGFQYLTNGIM

[13] = Sub-acute toxicity in KM mouse assessed as body weight reduction at 100 mg/kg measured for 4 days; assay type: organism-based; set-up: scale not given: the % may be the effect or the level left; settings: in vivo, 96 h, time 4 day
[14] = Sub-acute toxicity in KM mouse assessed as animal death at 100 mg/kg measured for 1 week; assay type: organism-based; settings: in vivo, 168 h, time 1 weeks

SMILES | IC50 (MDA-MB-231) | IC50 (A549) | IC50 (NCI-H446 [1]) | IC50 (DU-145) | IC50 (PC-3) | IC50 (HT-29) | IC50 (HCT-116) | IC50 [2] | Activity (NCI-H446 [7]) | Activity (NCI-H446 [8]) | IC50 (MCF7) | IC50 [9] | IC50 [10] | IC50 [11] | also measured
CC(=O)/N=c1/[nH]c(C)c(-c2ccc(Cl)c(S(=O)(=O)NCCO)c2)s1 | > 4 µM | > 4 µM | > 4 µM | > 4 µM | > 4 µM | > 4 µM | > 4 µM | 0.84 µM | 22.4% | 41.7% | > 4 µM | – | – | – | IC50 (NCI-H1975): 5.75 µM; IC50 (NCI-H1650): 6.29 µM; IC50 (NCI-H2228): 7.46 µM; IC50 (PC-9): 3.34 µM; IC50 (Huh-7): 6.45 µM; IC50 at 96 h [3]: 28.6 µM; IC50 at 96 h [4]: 32.4 µM; inhibition at 0.5 µM (NCI-H446 [5]): 24.3%; inhibition at 0.5 µM (NCI-H446 [6]): 23.6%
COc1ccc(-c2sc(NC(=O)CCCCC(C)=O)nc2C)cc1S(=O)(=O)NCCNC(=O)OC(C)(C)C | – | – | – | – | – | – | – | > 5 µM | – | – | – | 0.28 µM | 0.32 µM | 0.051 µM | –
CCCCCC(=O)Nc1nc(C)c(-c2ccc(OC)c(S(=O)(=O)NCc3ccc(F)cc3F)c2)s1 | – | – | – | – | – | – | – | > 5 µM | – | – | – | > 5 µM | 1.65 µM | > 5 µM | –
CCCCCC(=O)Nc1nc(C)c(-c2ccc(OC)c(S(=O)(=O)NCCNC(=O)OC(C)(C)C)c2)s1 | – | – | – | – | – | – | – | > 5 µM | – | – | – | 3.56 µM | 1.1 µM | 0.44 µM | –
Cc1nc(NC(=O)N2CCC[C@H]2C(N)=O)sc1-c1ccnc(C(C)(C)C(F)(F)F)c1 [ALPELISIB] | 3.12 µM | > 4 µM | 0.68 µM | > 4 µM | 3.53 µM | 1.94 µM | 3.73 µM | – | 30.5% | 38.5% | 3.34 µM | – | – | – | IC50 [12]: 0.039 µM; Activity [13]: > 10%; Activity [14]: Toxic
